Measurements from patent US8637484B2, “Modulation of growth hormone receptor expression and insulin-like growth factor expression” (Antisense Therapeutic Limited, priority 2003, dated 2014).
In the oligonucleotide strings, read from the 5' end, every base follows the letter of its sugar. An asterisk marks phosphorothioate; unmarked linkages are phosphodiester. Other units and linkages are bracketed, terminal groups are in braces. A string of capitals states the bases alone. e = 2'-O-(2-methoxyethyl) (MOE); [5mC] = 5-methylcytosine; d = 2'-deoxy (DNA)

What follows are substances tested on human growth hormone receptor mRNA (assay: Inhibition of human growth hormone receptor mRNA levels in MCF7 cells, quantitative real-time PCR). Settings: averages from three experiments.
Assay type: cell-based
Parameters: concentration or dose not given beside the values
Experimental: The human breast carcinoma cell line MCF-7 was obtained from the American Type Culture Collection (Manassas, Va.). MCF-7 cells were routinely cultured in DMEM low glucose (Gibco/Life Technologies, Gaithersburg, Md.) supplemented with 10% fetal calf serum (Gibco/Life Technologies, Gaithersburg, Md.). Cells were routinely passaged by trypsinization and dilution when they reached 90% confluence. Cells were seeded into 96-well plates (Falcon-Primaria #3872) at a density of 7000 cells/well for use in RT-PCR analysis.
When cells reached 65-75% confluency, they were treated with oligonucleotide. For cells grown in 96-well plates, wells were washed once with 100 μL OPTI-MEM™-1 reduced-serum medium (Invitrogen Corporation, Carlsbad, Calif.) and then treated with 130 μL of OPTI-MEM™-1 containing 3.75 μg/mL LIPOFECTIN™ (Invitrogen Corporation, Carlsbad, Calif.) and the desired concentration of oligonucleotide. Cells are treated and data are obtained in triplicate. After 4-7 hours of treatment at 37° C., the medium was replaced with fresh medium. Cells were harvested 16-24 hours after oligonucleotide treatment.
Total RNA was isolated using an RNEASY 96™ kit and buffers purchased from Qiagen Inc. (Valencia, Calif.) following the manufacturer's recommended procedures. Briefly, for cells grown on 96-well plates, growth medium was removed from the cells and each well was washed with 200 μL cold PBS. 150 μL Buffer RLT was added to each well and the plate vigorously agitated for 20 seconds. 150 μL of 70% ethanol was then added to each well and the contents mixed by pipetting three times up and down. The samples were then transferred to the RNEASY 96™ well plate attached to a QIAVAC™ manifold fitted with a waste collection tray and attached to a vacuum source. Vacuum was applied for 1 minute. 500 μL of Buffer RW1 was added to each well of the RNEASY 96™ plate and incubated for 15 minutes and the vacuum was again applied for 1 minute. An additional 500 μL of Buffer RW1 was added to each well of the RNEASY 96™ plate and the vacuum was applied for 2 minutes. 1 mL of Buffer RPE was then added to each well of the RNEASY 96™ plate and the vacuum applied for a period of 90 seconds. The Buffer RPE wash was then repeated and the vacuum was applied for an additional 3 minutes. The plate was then removed from the QIAVAC™ manifold and blotted dry on paper towels. The plate was then re-attached to the QIAVAC™ manifold fitted with a collection tube rack containing 1.2 mL collection tubes. RNA was then eluted by pipetting 140 μL of RNAse free water into each well, incubating 1 minute, and then applying the vacuum for 3 minutes.
Quantitation of growth hormone receptor mRNA levels was accomplished by real-time quantitative PCR using the ABI PRISM™ 7600, 7700, or 7900 Sequence Detection System (PE-Applied Biosystems, Foster City, Calif.) according to manufacturer's instructions. This is a closed-tube, non-gel-based, fluorescence detection system which allows high-throughput quantitation of polymerase chain reaction (PCR) products in real-time. As opposed to standard PCR in which amplification products are quantitated after the PCR is completed, products in real-time quantitative PCR are quantitated as they accumulate. This is accomplished by including in the PCR reaction an oligonucleotide probe that anneals specifically between the forward and reverse PCR primers, and contains two fluorescent dyes. A reporter dye (e.g., FAM or JOE, obtained from either PE-Applied Biosystems, Foster City, Calif., Operon Technologies Inc., Alameda, Calif. or Integrated DNA Technologies Inc., Coralville, Iowa) is attached to the 5′ end of the probe and a quencher dye (e.g., TAMRA, obtained from either PE-Applied Biosystems, Foster City, Calif., Operon Technologies Inc., Alameda, Calif. or Integrated DNA Technologies Inc., Coralville, Iowa) is attached to the 3′ end of the probe. When the probe and dyes are intact, reporter dye emission is quenched by the proximity of the 3′ quencher dye. […]

First: 227452 (antisense eT*e[5mC]*eA*eG*eG*dG*d[5mC]*dA*dT*dT*d[5mC]*dT*dT*dT*d[5mC]*e[5mC]*eA*eT*eT*e[5mC]) [compound 227452]
Second: 227453 (antisense e[5mC]*eA*eT*eA*eA*dT*d[5mC]*dA*dG*dG*dG*d[5mC]*dA*dT*dT*e[5mC]*eT*eT*eT*e[5mC]) [compound 227453]
The “% INHIB” value of the first is higher: 79% for the first, 52% for the second.

Compared with “227464 (antisense e[5mC]*e[5mC]*eT*eT*eT*dA*dA*dT*d[5mC]*dT*dT*dT*dG*dG*dA*eA*e[5mC]*eT*eG*eG) [compound 227464]”, “227468 (antisense eT*e[5mC]*eA*eT*e[5mC]*dA*dA*dT*dA*dT*d[5mC]*dT*dA*dG*d[5mC]*eT*e[5mC]*eA*eA*eT) [compound 227468]” is higher in “% INHIB” value: 58% for the first, 62% for the second.

Compared with “227469 (antisense e[5mC]*eT*eT*eA*eG*dA*dA*dG*dT*d[5mC]*dT*dG*dT*d[5mC]*dT*eG*eT*eG*eT*e[5mC]) [compound 227469]”, “227475 (antisense e[5mC]*e[5mC]*eT*eG*e[5mC]*dT*dG*dG*dT*dG*dT*dA*dA*dT*dG*eT*e[5mC]*eG*e[5mC]*eT) [compound 227475]” is higher in “% INHIB” value: 63% for the first, 68% for the second.

Compared with “227480 (antisense eA*eT*eG*eT*eA*dA*dA*dT*dG*dT*d[5mC]*d[5mC]*dT*d[5mC]*dT*eT*eG*eG*eT*eT) [compound 227480]”, “227481 (antisense eT*eG*eG*eT*eG*dA*dT*dG*dT*dA*dA*dA*dT*dG*dT*e[5mC]*e[5mC]*eT*e[5mC]*eT) [compound 227481]” is lower in “% INHIB” value: 66% for the first, 45% for the second.

Going from “227482 (antisense eT*eT*e[5mC]*eT*eG*dT*dG*dG*dT*dG*dA*dT*dG*dT*dA*eA*eA*eT*eG*eT) [compound 227482]” to “227483 (antisense eA*eG*eG*e[5mC]*eT*dT*dT*d[5mC]*dT*dG*dT*dG*dG*dT*dG*eA*eT*eG*eT*eA) [compound 227483]”, the “% INHIB” value rises from 53% to 75%.

Compared with “227484 (antisense eT*eG*eG*eT*eA*dA*dG*dG*d[5mC]*dT*dT*dT*d[5mC]*dT*dG*eT*eG*eG*eT*eG) [compound 227484]”, “227488 (antisense eA*eG*eT*eT*eG*dG*dT*d[5mC]*dT*dG*dT*dG*d[5mC]*dT*d[5mC]*eA*e[5mC]*eA*eT*eA) [compound 227488]” is higher in “% INHIB” value: 63% for the first, 86% for the second.

First: 227489 (antisense eT*eG*eT*eT*e[5mC]*dA*dG*dT*dT*dG*dG*dT*d[5mC]*dT*dG*eT*eG*e[5mC]*eT*e[5mC]) [compound 227489]
Second: 227490 (antisense eG*e[5mC]*eA*eT*eG*dA*dT*dT*dT*dT*dG*dT*dT*d[5mC]*dA*eG*eT*eT*eG*eG) [compound 227490]
The “% INHIB” value of the first is higher: 75% for the first, 67% for the second.

Going from “227499 (antisense eT*eA*eT*eA*eA*dA*dA*dG*dG*dG*d[5mC]*dT*dT*dT*dG*eT*eA*eA*eA*eA) [compound 227499]” to “227500 (antisense e[5mC]*eA*eT*eA*eG*d[5mC]*dA*dG*d[5mC]*dA*dA*dA*dG*dT*dA*eG*e[5mC]*eA*eG*eA) [compound 227500]”, the “% INHIB” value rises from 14% to 69%.

Going from “227501 (antisense eG*e[5mC]*eT*eA*eT*dT*dT*dT*dT*dG*dG*d[5mC]*dT*dA*dT*eA*eG*eA*eA*eA) [compound 227501]” to “227502 (antisense eG*eA*eT*eT*eG*dA*dG*dG*dT*dA*dT*dT*dT*dA*dG*e[5mC]*eT*eA*eT*eT) [compound 227502]”, the “% INHIB” value falls from 64% to 56%.

First: 272302 (antisense eG*eA*eT*e[5mC]*e[5mC]*dA*dT*dA*d[5mC]*d[5mC]*dT*dG*dT*dA*dG*eG*eA*e[5mC]*e[5mC]*eT) [compound 272302]
Second: 272303 (antisense e[5mC]*e[5mC]*eA*eG*eA*dG*dA*dT*d[5mC]*d[5mC]*dA*dT*dA*d[5mC]*d[5mC]*eT*eG*eT*eA*eG) [compound 272303]
The “% INHIB” value of the first is higher: 60% for the first, 55% for the second.

First: 272304 (antisense eT*eG*e[5mC]*eT*eA*dA*dG*dG*dA*dT*dA*dG*d[5mC]*dT*dG*e[5mC]*eT*eG*eT*eG) [compound 272304]
Second: 272305 (antisense eT*eT*eG*eT*e[5mC]*dT*dT*dT*dA*dG*dG*d[5mC]*d[5mC]*dT*dG*eG*eA*eT*eT*eA) [compound 272305]
The “% INHIB” value of the first is lower: 48% for the first, 68% for the second.

Going from “272306 (antisense eT*eT*eA*eG*eA*dA*dG*dA*dA*dT*dT*dT*dG*dT*d[5mC]*eT*eT*eT*eA*eG) [compound 272306]” to “272307 (antisense eG*eT*eG*eA*eA*dT*dT*dT*dA*dG*dG*d[5mC]*dT*d[5mC]*d[5mC]*eT*eT*eA*eG*eA) [compound 272307]”, the “% INHIB” value rises from 13% to 55%.

Going from “272308 (antisense eG*e[5mC]*eT*eG*eT*dA*dT*dG*dG*dG*dT*d[5mC]*d[5mC]*dT*dA*eG*eG*eT*eT*e[5mC]) [compound 272308]” to “272309 (antisense eT*eA*eA*e[5mC]*eA*dG*d[5mC]*dT*dG*dT*dT*dT*dT*d[5mC]*d[5mC]*e[5mC]*e[5mC]*eA*eG*e[5mC]) [compound 272309]”, the “% INHIB” value rises from 57% to 85%.

Going from “272310 (antisense eT*eT*eT*e[5mC]*eA*dT*d[5mC]*d[5mC]*dA*d[5mC]*dT*dG*dT*dA*d[5mC]*e[5mC]*eA*e[5mC]*e[5mC]*eA) [compound 272310]” to “272311 (antisense eT*eT*eG*e[5mC]*eA*d[5mC]*dT*dA*dT*dT*dT*d[5mC]*dA*dT*d[5mC]*eA*eA*e[5mC]*eA*eG) [compound 272311]”, the “% INHIB” value falls from 76% to 47%.

Going from “272312 (antisense eG*eG*eG*eT*eG*dG*dA*dT*d[5mC]*dT*dG*dG*dT*dT*dG*e[5mC]*eA*e[5mC]*eT*eA) [compound 272312]” to “272313 (antisense eA*eT*eT*eG*e[5mC]*dG*dT*dG*dG*dT*dG*d[5mC]*dT*dT*d[5mC]*e[5mC]*e[5mC]*eA*eT*e[5mC]) [compound 272313]”, the “% INHIB” value rises from 57% to 77%.

Compared with “272314 (antisense eT*eA*eG*eG*eG*dT*d[5mC]*d[5mC]*dA*dT*d[5mC]*dA*dT*dT*dT*eT*e[5mC]*e[5mC]*eA*eT) [compound 272314]”, “272315 (antisense e[5mC]*eA*eA*eT*eG*dA*dG*dT*dA*d[5mC]*dA*d[5mC]*dT*dG*dG*eA*eA*e[5mC]*eT*eG) [compound 272315]” is lower in “% INHIB” value: 56% for the first, 53% for the second.

First: 272316 (antisense eA*eA*e[5mC]*eT*e[5mC]*dG*d[5mC]*d[5mC]*dA*dT*dA*dA*dT*dT*dT*e[5mC]*e[5mC]*eA*eG*eA) [compound 272316]
Second: 272317 (antisense eA*eG*e[5mC]*e[5mC]*e[5mC]*dA*dA*dA*dT*dA*dT*dT*d[5mC]*d[5mC]*dA*eA*eA*eG*eA*eT) [compound 272317]
The “% INHIB” value of the first is lower: 64% for the first, 65% for the second.

First: 272318 (antisense eT*e[5mC]*eA*eG*e[5mC]*dA*dT*dT*dT*dT*dA*dA*dT*d[5mC]*d[5mC]*eT*eT*eT*eG*e[5mC]) [compound 272318]
Second: 272319 (antisense eA*eT*eT*eT*eT*d[5mC]*d[5mC]*dT*dT*d[5mC]*d[5mC]*dT*dT*dG*dA*eG*eG*eA*eG*eA) [compound 272319]
The “% INHIB” value of the first is lower: 55% for the first, 67% for the second.

Going from “272320 (antisense eA*eG*eA*eT*eT*dG*dT*dG*dT*dT*d[5mC]*dA*d[5mC]*d[5mC]*dT*e[5mC]*e[5mC]*eT*e[5mC]*eT) [compound 272320]” to “272321 (antisense eA*eA*e[5mC]*e[5mC]*e[5mC]*dA*dA*dG*dA*dG*dT*d[5mC]*dA*dT*d[5mC]*eA*e[5mC]*eT*eG*eT) [compound 272321]”, the “% INHIB” value falls from 70% to 64%.

With “272322 (antisense e[5mC]*eT*eG*eG*e[5mC]*dT*d[5mC]*dA*dT*d[5mC]*dA*dA*dT*dA*dT*e[5mC]*eT*eA*eG*e[5mC]) [compound 272322]” the “% INHIB” value was 84%.
